Experimental data published in EPA's ToxRefDB 2.

Columns and labels:
[1] = test system: rat; conditions: Prenatal developmental toxicity study, wistar, Inhalation, Whole-Body, dose end: 19 GD
[2] = test system: rabbit; conditions: Subchronic inhalation toxicity, new zealand white, Whole-Body, dose end: 13 week, group: systemic
[3] = test system: mouse; conditions: Subchronic oral toxicity in rodents, b6c3f1, Water, dose end: 13 week
[4] = test system: rat; conditions: Carcinogenicity, fischer, Oral, Gavage/Intubation, dose end: 2 year, group: systemic
[5] = test system: rat; conditions: Subchronic inhalation toxicity, sprague dawley, Whole-Body, dose end: 13 week, group: systemic
[6] = test system: mouse; conditions: Carcinogenicity, b6c3f1, Oral, Gavage/Intubation, dose end: 2 year, group: systemic
[7] = test system: rat; conditions: Prenatal developmental toxicity study, wistar, Inhalation, Whole-Body, dose end: 15 GD
[8] = test system: rat; conditions: Subchronic oral toxicity in rodents, fischer, Water, dose end: 13 week
[9] = test system: rat; conditions: Prenatal developmental toxicity study, wistar, Inhalation, Whole-Body, dose end: 19 GD; remark: listed apart in the source
[10] = test system: rabbit; conditions: Prenatal developmental toxicity study, new zealand white, Inhalation, Whole-Body, dose end: 18 GD
[11] = test system: rabbit; conditions: Prenatal developmental toxicity study; dutch; Inhalation; Whole-Body; dose end: 18 GD; group: developmental; developmental / developmental malformation / bone / incomplete ossification + developmental / developmental malformation / bone / …
[12] = test system: dog; conditions: Subchronic oral toxicity in nonrodent, beagle, Feed, dose end: 90 day, group: systemic
[13] = test system: mouse; conditions: Subchronic oral toxicity in rodents, other, Feed, dose end: 90 day, group: systemic
[14] = test system: rat; conditions: Subchronic oral toxicity in rodents, sprague dawley, Feed, dose end: 90 day, group: systemic
[15] = test system: mouse; conditions: Combined chronic toxicity/carcinogenicity; Oral; Feed; dose end: 104 week; group: systemic; systemic / in life observation / water consumption / water consumption + systemic / pathology gross / full gross necropsy / abdominal cavity…
[16] = test system: dog; conditions: Chronic toxicity, beagle, Oral, Feed, dose end: 52 week, group: systemic
[17] = test system: rat; conditions: Multigenerational reproductive toxicity study, Charles River CD, Oral, Feed, dose end: 2 generation
[18] = test system: rat; conditions: Prenatal developmental toxicity study, sprague dawley, Oral, Gavage/Intubation, dose end: 19 GD
[19] = test system: mouse; conditions: Subchronic oral toxicity in rodents, cd1, Feed, dose end: 13 week, group: systemic
[20] = test system: dog; conditions: Chronic toxicity, beagle, Oral, Feed, dose end: 52 week, group: systemic; remark: listed apart in the source
[21] = test system: mouse; conditions: Carcinogenicity; cd1; Oral; Feed; dose end: 78 week; group: systemic; systemic / organ weight / liver / nos + systemic / organ weight / liver / relative to body weight + systemic / pathology microscopic / liver…
[22] = test system: rat; conditions: Combined chronic toxicity/carcinogenicity; sprague dawley; Oral; Feed; dose end: 104 week; group: systemic; systemic / clinical chemistry / alanine aminotransferase (alt/sgpt) / alanine aminotransferase (alt/sgpt) + systemic / clinical chemistry / …
[23] = test system: rat; conditions: Subchronic oral toxicity in rodents, sprague dawley, Feed, dose end: 13 week, group: systemic
[24] = group: developmental, developmental / developmental malformation / bone / incomplete ossification + developmental / developmental malformation / bone / knobby + …
[25] = group: maternal, reproductive / reproductive performance / resorptions / resorptions
[26] = group: maternal, reproductive / reproductive performance / resorptions / resorptions + systemic / in life observation / body weight / body weight + systemic…
[27] = systemic / clinical chemistry / cholesterol / cholesterol
[28] = systemic / clinical chemistry / cholesterol / cholesterol + systemic / hematology / erythrocyte (rbc) count differential / erythrocyte (rbc…
[29] = group: maternal, reproductive / reproductive performance / estrous cycle / length
[30] = group: systemic, systemic / in life observation / body weight / body weight gain + systemic / organ weight / testes / absolute + systemic / pathology gross…
[31] = systemic / in life observation / body weight / body weight
[32] = systemic / in life observation / body weight / body weight + systemic / pathology gross / adrenal gland / enlarged
[33] = systemic / organ weight / spleen / absolute + systemic / organ weight / spleen / relative to body weight
[34] = systemic / organ weight / spleen / absolute + systemic / organ weight / spleen / relative to body weight + systemic / clinical chemistry / …
[35] = systemic / in life observation / mortality / mortality + systemic / pathology gross / stomach / ulcer + systemic / pathology gross / testes…
[36] = group: developmental, systemic / in life observation / body weight / litter weight
[37] = group: developmental, systemic / in life observation / body weight / litter weight + developmental / developmental malformation / bone / incomplete ossification…
[38] = group: maternal, reproductive / reproductive performance / preimplantation loss / preimplantation loss + reproductive / offspring survival early / live …
[39] = group: maternal, reproductive / reproductive performance / estrous cycle / abnormal + reproductive / reproductive performance / estrous cycle / length
[40] = group: systemic, systemic / clinical chemistry / alkaline phosphatase (alp/alk) / alkaline phosphatase (alp/alk)
[41] = group: systemic, systemic / in life observation / body weight / body weight + systemic / in life observation / body weight / body weight gain + systemic / …
[42] = group: maternal, systemic / organ weight / spleen / relative to body weight
[43] = group: developmental, developmental / developmental malformation / bone / supernumerary + developmental / developmental malformation / heart / [other] + …
[44] = group: maternal, reproductive / reproductive performance / resorptions / resorptions + systemic / in life observation / body weight / body weight gain + …
[45] = group: maternal, reproductive / reproductive performance / resorptions / resorptions + systemic / in life observation / food consumption / food consumption…
[46] = systemic / clinical chemistry / alanine aminotransferase (alt/sgpt) / alanine aminotransferase (alt/sgpt) + systemic / clinical chemistry / …
[47] = systemic / organ weight / ovary / absolute + systemic / organ weight / ovary / relative to body weight
[48] = systemic / pathology microscopic / liver / hypertrophy
[49] = systemic / clinical chemistry / cholesterol / cholesterol + systemic / organ weight / kidney / absolute + systemic / organ weight / kidney…
[50] = systemic / organ weight / liver / absolute + systemic / organ weight / liver / relative to body weight + systemic / pathology microscopic / …
[51] = group: offspring, systemic / in life observation / body weight / offspring (pup) weight + systemic / organ weight / liver / absolute + systemic / organ weight…
[52] = group: parental, systemic / organ weight / spleen / relative to body weight
[53] = group: reproductive, reproductive / reproductive performance / fertility / fertility
[54] = group: reproductive, reproductive / reproductive performance / fertility / fertility + reproductive / offspring survival early / birth index / live birth index
[55] = group: developmental, developmental / developmental malformation / bone / bent + developmental / developmental malformation / bone / incomplete ossification + …
[56] = group: maternal, systemic / in life observation / body weight / body weight gain + systemic / in life observation / clinical signs / lethargy + systemic / in…
[57] = systemic / pathology microscopic / liver / [other] + systemic / pathology microscopic / liver / hematopoietic cell proliferation + systemic…
[58] = systemic / organ weight / adrenal gland / absolute + systemic / organ weight / heart / absolute + systemic / organ weight / spleen / …
[59] = systemic / hematology / erythrocyte (rbc) count differential / erythrocyte (rbc)

CCOCCO [2-Ethoxyethanol]
LEL [1, 24]: 150 ppm
LOAEL [1, 24]: > 649 ppm
NEL [1, 24]: < 150 ppm
NOAEL [1, 24]: ≥ 649 ppm
LEL [1, 25]: 150 ppm
NEL [1, 25]: < 150 ppm
LOAEL [1, 26]: > 649 ppm
NOAEL [1, 26]: ≥ 649 ppm
LEL [2, 27]: 25 ppm
NEL [2, 27]: < 25 ppm
LOAEL [2, 28]: > 400 ppm
NOAEL [2, 28]: ≥ 400 ppm
LEL [3, 29]: 722 mg/kg/day
LOAEL [3, 29]: > 11200 mg/kg/day
NEL [3, 29]: < 722 mg/kg/day
NOAEL [3, 29]: ≥ 11200 mg/kg/day
LOAEL [3, 30]: 5120 mg/kg/day
NOAEL [3, 30]: 2000 mg/kg/day
LEL ([3]; group: systemic, systemic / pathology microscopic / adrenal gland / hypertrophy): 2720 mg/kg/day
NEL ([3]; group: systemic, systemic / pathology microscopic / adrenal gland / hypertrophy + systemic / in life observation / body weight / body weight gain + systemic…): 1300 mg/kg/day
LOAEL [4, 31]: 500 mg/kg/day
NOAEL [4, 31]: < 500 mg/kg/day
LEL [4, 32]: 500 mg/kg/day
NEL [4, 32]: < 500 mg/kg/day
LEL [5, 33]: 25 ppm
NEL [5, 33]: < 25 ppm
LOAEL [5, 34]: > 400 ppm
NOAEL [5, 34]: ≥ 400 ppm
LOAEL [6, 35]: > 2000 mg/kg/day
NEL [6, 35]: 500 mg/kg/day
NOAEL [6, 35]: ≥ 2000 mg/kg/day
LEL ([6]; systemic / pathology gross / testes / reduced size): 1000 mg/kg/day
LEL [7, 36]: 10 ppm
NEL [7, 36]: < 10 ppm
LOAEL [7, 37]: > 250 ppm
NOAEL [7, 37]: ≥ 250 ppm
LEL [7, 38]: 10 ppm
LOAEL [7, 38]: > 250 ppm
NEL [7, 38]: < 10 ppm
NOAEL [7, 38]: ≥ 250 ppm
LEL [8, 39]: 804 mg/kg/day
LOAEL [8, 39]: > 2060 mg/kg/day
NEL [8, 39]: 466 mg/kg/day
NOAEL [8, 39]: ≥ 2060 mg/kg/day
LEL [8, 40]: 109 mg/kg/day
NEL [8, 40]: < 109 mg/kg/day
LOAEL [8, 41]: 792 mg/kg/day
NOAEL [8, 41]: 400 mg/kg/day
LEL [9, 24]: 202 ppm
LOAEL [9, 24]: > 767 ppm
NEL [9, 24]: < 202 ppm
NOAEL [9, 24]: ≥ 767 ppm
LOAEL [9, 26]: > 767 ppm
NOAEL [9, 26]: ≥ 767 ppm
LEL [9, 42]: 202 ppm
NEL [9, 42]: < 202 ppm
LEL [10, 43]: 160 ppm
LOAEL [10, 43]: > 617 ppm
NEL [10, 43]: < 160 ppm
NOAEL [10, 43]: ≥ 617 ppm
LOAEL [10, 44]: > 617 ppm
NOAEL [10, 44]: ≥ 617 ppm
LEL [10, 45]: 160 ppm
NEL [10, 45]: < 160 ppm
LEL [11]: 175 ppm
LOAEL [11]: > 175 ppm
NEL [11]: 50 ppm
NOAEL [11]: ≥ 175 ppm

COC(=O)c1ccccc1CS(=O)(=O)NC(=O)Nc1nc(OC)cc(OC)n1 [Bensulfuron-methyl]
LOAEL [12, 46]: 340 mg/kg/day
NOAEL [12, 46]: 32.1 mg/kg/day
LEL [12, 47]: 3.5 mg/kg/day
NEL [12, 47]: < 3.5 mg/kg/day
LEL [13, 48]: 38.9 mg/kg/day
LOAEL [13, 48]: 387 mg/kg/day
NEL [13, 48]: < 38.9 mg/kg/day
NOAEL ([13]; systemic / pathology microscopic / liver / hypertrophy + systemic / organ weight / liver / absolute + systemic / organ weight / liver / …): 132 mg/kg/day
LOAEL [14, 49]: 474 mg/kg/day
NOAEL [14, 49]: 93 mg/kg/day
LEL [14, 50]: 7.5 mg/kg/day
NEL [14, 50]: < 7.5 mg/kg/day
LEL [15]: 455 mg/kg/day
LOAEL [15]: 455 mg/kg/day
NEL [15]: 226 mg/kg/day
NOAEL [15]: 226 mg/kg/day
LOAEL [16, 46]: 223 mg/kg/day
NEL [16, 46]: 1.4 mg/kg/day
NOAEL [16, 46]: 19.9 mg/kg/day
LEL [16, 33]: 19.9 mg/kg/day

CCOC(=O)C(C)OC(=O)c1cc(Oc2ccc(C(F)(F)F)cc2Cl)ccc1[N+](=O)[O-] (stereo not drawn) [Lactofen]
LEL [17, 51]: 26.7 mg/kg/day
LOAEL [17, 51]: 26.7 mg/kg/day
NEL [17, 51]: 2.7 mg/kg/day
NOAEL [17, 51]: 2.7 mg/kg/day
LOAEL ([17]; group: parental, systemic / in life observation / mortality / mortality): 32.9 mg/kg/day
NOAEL ([17]; group: parental, systemic / in life observation / mortality / mortality + systemic / in life observation / body weight / body weight + systemic / organ …): 3.3 mg/kg/day
LEL [17, 52]: 3.3 mg/kg/day
NEL [17, 52]: < 3.3 mg/kg/day
LEL [17, 53]: 26.7 mg/kg/day
LOAEL [17, 53]: 26.7 mg/kg/day
NEL [17, 54]: 2.7 mg/kg/day
NOAEL [17, 54]: 2.7 mg/kg/day
LEL [18, 55]: 150 mg/kg/day
LOAEL [18, 55]: 150 mg/kg/day
NEL [18, 55]: 50 mg/kg/day
NOAEL [18, 55]: 50 mg/kg/day
LEL [18, 56]: 150 mg/kg/day
LOAEL [18, 56]: 150 mg/kg/day
NEL [18, 56]: 50 mg/kg/day
NOAEL [18, 56]: 50 mg/kg/day
LOAEL [19, 46]: 143 mg/kg/day
NOAEL [19, 46]: 28.6 mg/kg/day
LEL [19, 57]: 5.7 mg/kg/day
NEL [19, 57]: < 5.7 mg/kg/day
LEL [20, 58]: 0.79 mg/kg/day
NEL [20, 58]: < 0.79 mg/kg/day
NOAEL [20, 58]: 0.79 mg/kg/day
LOAEL ([20]; systemic / organ weight / adrenal gland / absolute + systemic / organ weight / thyroid gland / absolute): 3.96 mg/kg/day
LEL [21]: 1.4 mg/kg/day
LOAEL [21]: 1.4 mg/kg/day
NEL [21]: < 1.4 mg/kg/day
NOAEL [21]: < 1.4 mg/kg/day
LEL [22]: 19 mg/kg/day
LOAEL [22]: 19 mg/kg/day
NEL [22]: 2 mg/kg/day
NOAEL [22]: 2 mg/kg/day
LOAEL [23, 46]: 73.7 mg/kg/day
NOAEL [23, 46]: 14.1 mg/kg/day
LEL [23, 59]: 2.9 mg/kg/day
NEL [23, 59]: < 2.9 mg/kg/day
